≈ marks a conversion by molar mass, not a printed value.
What was measured:
[1] = tested on: Pseudomonas aeruginosa PA01; assay: Antimicrobial activity, MIC by agar dilution method; type: cell-based; conditions: Mueller-Hinton agar, 37° C., 18 to 20 hr
Description: (§1) The antimicrobial activity of 2-hydroxykanamycin B and 2-hydroxykanamycin C was measured as the minimum inhibitory concentration (MIC) by an agar dilution method. Test bacteria which had been cultivated overnight in a growth medium were adjusted to 10^6 cells/ml, and one platinum loop thereof was inoculated in a Mueller-Hinton agar medium containing 2-hydroxykanamycin B or 2-hydroxykanamycin C (manufactured by Difco Laboratories Inc.), followed by cultivation at 37° C. for 18 to 20 hr.

[2] = tested on: Staphylococcus aureus 209P JC-1; assay: as above; type: cell-based; conditions: Mueller-Hinton agar, 37° C., 18 to 20 hr
Description: as §1

[3] = tested on: Staphylococcus aureus ATCC29213; assay: as above; type: cell-based; conditions: Mueller-Hinton agar, 37° C., 18 to 20 hr
Description: as §1

[4] = tested on: Escherichia coli ATCC25922; assay: as above; type: cell-based; conditions: Mueller-Hinton agar, 37° C., 18 to 20 hr
Description: as §1

[5] = tested on: Enterococcus faecium ATCC19434; assay: as above; type: cell-based; conditions: Mueller-Hinton agar, 37° C., 18 to 20 hr
Description: as §1

[6] = tested on: Bacillus subtilis ATCC6633; assay: as above; type: cell-based; conditions: Mueller-Hinton agar, 37° C., 18 to 20 hr
Description: as §1

[7] = tested on: Acinetobacter calcoaceticus ATCC23055; assay: as above; type: cell-based; conditions: Mueller-Hinton agar, 37° C., 18 to 20 hr
Description: as §1

[8] = tested on: Staphylococcus epidermidis ATCC14990; assay: as above; type: cell-based; conditions: Mueller-Hinton agar, 37° C., 18 to 20 hr
Description: as §1

[9] = tested on: Enterococcus faecalis ATCC29212; assay: as above; type: cell-based; conditions: Mueller-Hinton agar, 37° C., 18 to 20 hr
Description: as §1

[10] = tested on: Salmonella typhimurium ATCC13311; assay: as above; type: cell-based; conditions: Salmonella enterica, Mueller-Hinton agar, 37° C., 18 to 20 hr
Description: as §1

[11] = Physicochemical properties: solubility

Row | Structure (SMILES) | MIC [1] | MIC [2] | MIC [3] | MIC [4] | MIC [5] | MIC [6] | MIC [7] | MIC [8] | MIC [9] | MIC [10] | Solubility ([11]; in chloroform) | Solubility ([11]; in ethyl acetate) | Solubility ([11]; in water)
1 | NCC1OC(OC2C(N)C(O)C(N)C(OC3OC(CO)C(O)C(N)C3O)C2O)C(N)C(O)C1O (centres unmarked) [2-Hydroxykanamycin B, 2-hydroxykanamycin B] | 128 µg/mL (≈ 256 µM) | 2 µg/mL (≈ 4 µM) | 2 µg/mL (≈ 4 µM) | 4 µg/mL (≈ 8.01 µM) | 64 µg/mL (≈ 128 µM) | 0.5 µg/mL (≈ 1 µM) | 1 µg/mL (≈ 2 µM) | 1 µg/mL (≈ 2 µM) | 64 µg/mL (≈ 128 µM) | 1 µg/mL (≈ 2 µM) | insoluble | insoluble | soluble
2 | NC1C(O)C(CO)OC(OC2C(N)C(O)C(N)C(OC3OC(CO)C(O)C(O)C3N)C2O)C1O (centres unmarked) [2-Hydroxykanamycin C, 2-hydroxykanamycin C] | > 128 µg/mL | 128 µg/mL (≈ 256 µM) | 128 µg/mL (≈ 256 µM) | 128 µg/mL (≈ 256 µM) | > 128 µg/mL | 16 µg/mL (≈ 32 µM) | 32 µg/mL (≈ 63.9 µM) | 32 µg/mL (≈ 63.9 µM) | > 128 µg/mL | 32 µg/mL (≈ 63.9 µM) | insoluble | insoluble | soluble

From patent US9469863B2, “Aminoglycoside antibiotics, process for producing the same, and pharmaceutical use thereof” (MEIJI SEIKA KAISHA, LTD., priority 2007, dated 2016)
